Reference: US20220002332A1, “SCUTELLARIN AMIDE DERIVATIVES, AND PREPARATION METHODS AND USES THEREOF” (HEILONGJIANG BAYI AGRICULTURAL UNIVERSITY, priority 2020, published 2022)

Key:
Type in all cases: cell-based
[1] = system: human promyelocytic leukemia cell line HL-60; experiment: Cell inhibitory activity (CCK-8 anti-proliferative) on HL-60; settings: HL-60 cells, 72 hours with drug, CCK-8, 450 nm
Description: (§1) Cell lines: human promyelocytic leukemia cell line HL-60, human acute leukemia mononuclear macrophage cell line THP-1, human liver cancer cell line HepG-2
(§2) Test Method for Cell Inhibitory Activity
(§3) Cells are routinely cultured in an incubator at 37° C. and 5% CO2 saturated humidity. The culture medium is RPMI1640 cell culture medium containing 10% of heat-inactivated fetal bovine serum, 100 U/mL of penicillin and 100 U/mL of streptomycin. The culture medium is replaced after 48 hours. After the cells adhere to the wall, they are digested with 0.25% trypsin and passage.
(§4) A vial of cells in the logarithmic growth phase and in good condition is digested with a digestion solution (0.125% trypsin+0.01% EDTA); cell count is 2 to 4×10^4 cell/mL; a cell suspension is made and inoculated on a 96-well plate, 100 μL/well, and cultured in a constant temperature CO2 incubator for 24 hours. The medium is replaced; the test drug is added, 100 μL/well, and cultured for 72 hours. CCK-8 is added to a 96-well plate, 50 μL/well, and incubated in an incubator for 4 hours. The supernatant is aspirated; DMSO is added, 200 μL/well, and shaken on a plate shaker for 10 minutes.

[2] = system: human acute leukemia mononuclear macrophage cell line THP-1; experiment: Cell inhibitory activity (CCK-8 anti-proliferative) on THP-1; settings: THP-1 cells, 72 hours with drug, CCK-8, 450 nm
Description: as §1, §2, §3, §4

[3] = system: human liver cancer cell line HepG-2; experiment: Cell inhibitory activity (CCK-8 anti-proliferative) on HepG-2; settings: HepG2, HepG-2 cells, 72 hours with drug, CCK-8, 450 nm
Description: as §1, §2, §3, §4

Compound	IC50 [1] [µM]	IC50 [3] [µM]	IC50 [2] [µM]
CCCCCCNC(=O)C1OC(Oc2cc3oc(-c4ccc(OCc5ccccc5)cc4)cc(=O)c3c(O)c2OCc2ccccc2)C(O)C(O)C1O (stereo not drawn) [Example 18]	59.1 ± 0.91	46.2 ± 2.03	35.8 ± 1.24
O=C(NC1CCCCC1)C1OC(Oc2cc3oc(-c4ccc(OCc5ccccc5)cc4)cc(=O)c3c(O)c2OCc2ccccc2)C(O)C(O)C1O (stereo not drawn) [Example 19]	58.8 ± 2.31	17.6 ± 1.66	16.8 ± 0.19
O=C(Nc1ccc(O)cc1)C1OC(Oc2cc3oc(-c4ccc(OCc5ccccc5)cc4)cc(=O)c3c(O)c2OCc2ccccc2)C(O)C(O)C1O (stereo not drawn) [Example 12]	58.9 ± 0.97	36.1 ± 0.67	33.9 ± 0.78
COc1ccc(-c2cc(=O)c3c(O)c(OC)c(OC4OC(C(=O)Nc5ccc(O)cc5)C(O)C(O)C4O)cc3o2)cc1 (stereo not drawn) [Example 27]	59.3 ± 2.18	51.2 ± 0.87	89.03 ± 0.59
O=C(O)[C@H]1O[C@@H](Oc2cc3oc(-c4ccc(O)cc4)cc(=O)c3c(O)c2O)[C@H](O)[C@@H](O)[C@@H]1O [Scutellarin]	22.7 ± 1.97	56.1 ± 1.23	48.5 ± 2.21
O=C(Nc1ccccc1)C1OC(Oc2cc3oc(-c4ccc(OCc5ccccc5)cc4)cc(=O)c3c(O)c2OCc2ccccc2)C(O)C(O)C1O (stereo not drawn) [Example 5]	20 ± 0.19	45.7 ± 2.15	35.37 ± 0.23
COc1ccc(-c2cc(=O)c3c(O)c(OC)c(OC4OC(C(=O)Nc5ccc(C)cc5)C(O)C(O)C4O)cc3o2)cc1 (stereo not drawn) [Example 25]	61.7 ± 2.97	39.7 ± 2.31	34.4 ± 1.89
COc1ccc(-c2cc(=O)c3c(O)c(OC)c(OC4OC(C(=O)Nc5cccc(OC)c5)C(O)C(O)C4O)cc3o2)cc1 (stereo not drawn) [Example 30]	2.95 ± 0.31	15 ± 0.85	21 ± 0.49
CCCCCCNC(=O)C1OC(Oc2cc3oc(-c4ccc(OC)cc4)cc(=O)c3c(O)c2OC)C(O)C(O)C1O (stereo not drawn) [Example 33]	4.21 ± 0.15	3.69 ± 0.63	5.76 ± 0.33
COc1ccc(-c2cc(=O)c3c(O)c(OC)c(OC4OC(C(=O)Nc5ccccc5O)C(O)C(O)C4O)cc3o2)cc1 (stereo not drawn) [Example 26]	15.4 ± 0.88	32.1 ± 2.03	40.1 ± 1.57
Cc1cccc(NC(=O)C2OC(Oc3cc4oc(-c5ccc(OCc6ccccc6)cc5)cc(=O)c4c(O)c3OCc3ccccc3)C(O)C(O)C2O)c1 (stereo not drawn) [Example 8]	11.8 ± 0.34	12 ± 3.52	16.1 ± 0.57
COc1cccc(NC(=O)C2OC(Oc3cc4oc(-c5ccc(OCc6ccccc6)cc5)cc(=O)c4c(O)c3OCc3ccccc3)C(O)C(O)C2O)c1 (stereo not drawn) [Example 15]	4.28 ± 0.31	29.2 ± 0.77	31.62 ± 0.25
COc1ccc(-c2cc(=O)c3c(O)c(OC)c(OC4OC(C(=O)Nc5cccc(C)c5)C(O)C(O)C4O)cc3o2)cc1 (stereo not drawn) [Example 23]	5.49 ± 0.16	3.15 ± 0.46	4.62 ± 0.2
COc1ccc(-c2cc(=O)c3c(O)c(OC)c(OC4OC(C(=O)NC5CCCCC5)C(O)C(O)C4O)cc3o2)cc1 (stereo not drawn) [Example 34]	28.7 ± 0.54	11.2 ± 0.72	19.1 ± 0.78
COc1ccc(-c2cc(=O)c3c(O)c(OC)c(OC4OC(C(=O)Nc5ccccc5C)C(O)C(O)C4O)cc3o2)cc1 (stereo not drawn) [Example 24]	64.2 ± 3.41	24.3 ± 0.92	27.8 ± 1.12

Continued by falling IC50 [1], values first:

IC50 [1] [µM]	IC50 [3] [µM]	Compound	IC50 [2] [µM]
85.23 ± 0.75	16.8 ± 0.19	COc1ccc(-c2cc(=O)c3c(O)c(OC)c(OC4OC(C(=O)Nc5ccccc5)C(O)C(O)C4O)cc3o2)cc1 (stereo not drawn) [Example 20]	63.12 ± 0.46
75.88 ± 0.31	51.6 ± 0.97	O=C(Nc1ccc(Cl)cc1)C1OC(Oc2cc3oc(-c4ccc(OCc5ccccc5)cc4)cc(=O)c3c(O)c2OCc2ccccc2)C(O)C(O)C1O (stereo not drawn) [Example 6]	81.36 ± 0.35
54.1 ± 1.21	39.5 ± 1.03	CC(C)NC(=O)C1OC(Oc2cc3oc(-c4ccc(OCc5ccccc5)cc4)cc(=O)c3c(O)c2OCc2ccccc2)C(O)C(O)C1O (stereo not drawn) [Example 17]	37.3 ± 0.93
53.2 ± 3.47	29 ± 2.26	COc1ccc(-c2cc(=O)c3c(O)c(OC)c(OC4OC(C(=O)Nc5ccccc5OC)C(O)C(O)C4O)cc3o2)cc1 (stereo not drawn) [Example 29]	19.7 ± 0.89
47.2 ± 2.71	39.5 ± 1.03	COc1ccc(NC(=O)C2OC(Oc3cc4oc(-c5ccc(OC)cc5)cc(=O)c4c(O)c3OC)C(O)C(O)C2O)cc1 (stereo not drawn) [Example 28]	53.8 ± 3.58
30.6 ± 0.57	21 ± 0.81	CCCNC(=O)C1OC(Oc2cc3oc(-c4ccc(OCc5ccccc5)cc4)cc(=O)c3c(O)c2OCc2ccccc2)C(O)C(O)C1O (stereo not drawn) [Example 16]	22.4 ± 0.38
28.2 ± 1.19	26.6 ± 2.19	COc1ccc(-c2cc(=O)c3c(O)c(OC)c(OC4OC(C(=O)NC(C)C)C(O)C(O)C4O)cc3o2)cc1 (stereo not drawn) [Example 32]	19 ± 0.36
27.53 ± 0.15	19.4 ± 1.11	Cc1ccccc1NC(=O)C1OC(Oc2cc3oc(-c4ccc(OCc5ccccc5)cc4)cc(=O)c3c(O)c2OCc2ccccc2)C(O)C(O)C1O (stereo not drawn) [Example 9]	26.8 ± 0.32
21.8 ± 0.99	33 ± 1.13	CCCNC(=O)C1OC(Oc2cc3oc(-c4ccc(OC)cc4)cc(=O)c3c(O)c2OC)C(O)C(O)C1O (stereo not drawn) [Example 31]	41.6 ± 1.37
20.9 ± 0.46	23.9 ± 0.88	COc1ccc(NC(=O)C2OC(Oc3cc4oc(-c5ccc(OCc6ccccc6)cc5)cc(=O)c4c(O)c3OCc3ccccc3)C(O)C(O)C2O)cc1 (stereo not drawn) [Example 13]	26.3 ± 0.94
15.43 ± 0.11	11.2 ± 1.07	O=C(Nc1cccc(Cl)c1)C1OC(Oc2cc3oc(-c4ccc(OCc5ccccc5)cc4)cc(=O)c3c(O)c2OCc2ccccc2)C(O)C(O)C1O (stereo not drawn) [Example 7]	13.67 ± 0.13
13 ± 0.28	7.23 ± 0.31	Cc1ccc(NC(=O)C2OC(Oc3cc4oc(-c5ccc(OCc6ccccc6)cc5)cc(=O)c4c(O)c3OCc3ccccc3)C(O)C(O)C2O)cc1 (stereo not drawn) [Example 10]	5.75 ± 0.36
4.86 ± 0.21	3.21 ± 0.75	COc1ccc(-c2cc(=O)c3c(O)c(OC)c(OC4OC(C(=O)Nc5ccc(Cl)cc5)C(O)C(O)C4O)cc3o2)cc1 (stereo not drawn) [Example 21]	4.47 ± 0.35
3.37 ± 0.22	5.42 ± 0.53	COc1ccc(-c2cc(=O)c3c(O)c(OC)c(OC4OC(C(=O)Nc5cccc(Cl)c5)C(O)C(O)C4O)cc3o2)cc1 (stereo not drawn) [Example 22]	7.02 ± 0.27
2.91 ± 0.69	5.11 ± 0.43	O=C(Nc1ccccc1O)C1OC(Oc2cc3oc(-c4ccc(OCc5ccccc5)cc4)cc(=O)c3c(O)c2OCc2ccccc2)C(O)C(O)C1O (stereo not drawn) [Example 11]	6.11 ± 0.97
1.7 ± 0.11	6.23 ± 2.03	COc1ccccc1NC(=O)C1OC(Oc2cc3oc(-c4ccc(OCc5ccccc5)cc4)cc(=O)c3c(O)c2OCc2ccccc2)C(O)C(O)C1O (stereo not drawn) [Example 14]	12.5 ± 0.35
